Experiments:
BV2 microglia cell line = test: WST-1 assay of PMA-induced ROS production; assay type: cell-based
Source text: The WST-1 assay allows to measure the ROS produced by cell cultures.

human recombinant TSPO = molecular target: T1, human recombinant TSPO (Homo sapiens, UniProt P30536); test: Microscale thermophoresis (MST) binding to isolated TSPO; conditions: 5 nM red-tagged hTSPO
T1 construct: purchased LSBio
Procedure: The tests were performed by using isolated human recombinant TSPO (purchased from LSBio). The lyophilized protein was resuspended in Tris buffer and stored at −80° C. as per manufacturer instructions. Labelling with a deep-red fluorophore was performed by using the Monolith labeling kit-RED from Nanothemper. Briefly, 200 nM of hTSPO was resuspended in Tris/Sarkosyl 0.1% buffer and then mixed with a solution containing anti-His red-fluorophore at 100 nM concentration. After incubation for 30 minutes at RT, the mixture was centrifuged at 15000 g for 10 minutes at 4° C., to pellet any aggregate or precipitate. […] MST was then performed to assess binding.

[1] = cited from earlier work

T1 sequence (P30536 whole entry): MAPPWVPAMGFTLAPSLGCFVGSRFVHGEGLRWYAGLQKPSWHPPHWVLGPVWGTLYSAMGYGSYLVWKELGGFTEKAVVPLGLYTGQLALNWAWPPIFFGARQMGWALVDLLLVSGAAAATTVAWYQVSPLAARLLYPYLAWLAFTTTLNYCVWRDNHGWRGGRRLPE

## c1ccc2c(c1)[I+]c1ccccc1-2 [DPI, diphenylene iodonium]
BV2 microglia cell line; co-incubation with PMA
  effect on PMA-induced ROS: able to counteract the induction of ROS

## CCCCCCCCCCCCCC(=O)O[C@@H]1[C@@H](C)[C@@]2(O)[C@@H](C=C(CO)C[C@]3(O)C(=O)C(C)=C[C@@H]23)[C@@H]2C(C)(C)[C@]12OC(C)=O [PMA, phorbol ester myristate acetate]
BV2 microglia cell line; 50 ng/ml for 6 hours
  increase of ROS production as compared to untreated control: 30-40%

## CN1C(=O)CN=C(c2ccc(Cl)cc2)c2cc(Cl)ccc21 [Ro5-4864]
Human recombinant TSPO; tested at 500 μM
  change in MST profile of tagged hTSPO / binding: significant change in the MST profile

## CCC(C)N(C)C(=O)c1cc2ccccc2c(-c2ccccc2Cl)n1 (stereo not drawn) [PK11195]
Human recombinant TSPO; ligand 250 μM
  change in MST profile of tagged hTSPO: significant change in the MST profile

## COc1cc(C(C)=O)cc(-c2cc(C(C)=O)cc(OC)c2O)c1O [Diapocynin]
BV2 microglia cell line; PMA 50 ng/ml, nominal concentration for encapsulated drug
  concentration inhibiting the PMA-induced increase of ROS: ≥ 50 µM
[1]
  pKa: 7.4
